# Measured values reported in patent US11090304B2 (Amgen Inc., priority 2018, dated 2021).
# Like-named read-outs stand apart in the source and are kept apart here.
# What was measured:
# [1] = tested on: Phosphorylation of ERK1/2 in MIA PaCa-2 cells; experiment: Phospho-ERK1/2 MSD assay in MIA PaCa-2 cells; format: cell-based
# Protocol: For compounds in Table 89, the following assay conditions were employed:
# Phospho-ERK1/2 MSD Assay:
# Sixteen hours prior to compound treatment, MIA PaCa-2 or A549 cells were seeded in 96-well cell culture plates at a density of 25,000 cells/well and incubated at 37° C., 5% CO2. A compound dose-response titration was diluted in growth media, added to appropriate wells of a cell culture plate, and then incubated at 37° C., 5% CO2 for 2 or 4 hours (see Table 15). Following compound treatment, cells were stimulated with 10 ng/mL EGF (Roche 11376454001) for 10 min, washed with ice-cold Dulbecco's phosphate-buffered saline, no Ca^2+ or Mg^2+ (ThermoFisher Scientific 14190144), and then lysed in RIPA buffer (50 mM Tris-HCl pH 7.5, 1% Igepal, 0.5% sodium deoxycholate, 150 mM NaCl, and 0.5% sodium dodecyl sulfate) containing protease inhibitors (Roche 4693132001) and phosphatase inhibitors (Roche 4906837001). Phosphorylation of ERK1/2 in compound-treated lysates was assayed using Phospho-ERK1/2 Whole Cell Lysate kits (Meso Scale Discovery K151DWD) according to the manufacturer's protocol. Assay plates were read on a Meso Scale Discovery Sector Imager 6000, and data were analyzed using a 4-parameter logistic model to calculate IC50 values.
# [2] = biological target: GDP-bound KRAS protein (aa 1-169), containing both G12C and C118A amino acid substitutions (Homo sapiens, UniProt P01116, C118A/G12C); experiment: Coupled nucleotide exchange assay (SOS-mediated, AlphaScreen); format: biochemical
# [3] = read-out: p-ERK IC50 (2 h; MIA PaCa-2), 2 h compound treatment
# [4] = Homo sapiens, MIA PaCa-2, 2 h, read-out: p-ERK IC50 (2 h; MIA PaCa-2), 2 h compound treatment
Compound,"IC50 [1, 3]",Coupled exchange IC50 (5 min) ([2]; 5 min compound pre-incubation),also measured
"C=CC(=O)N1CCN(c2nc(=O)n(-c3c(C(C)C)ccnc3C)c3nc(-c4c(O)cccc4F)c(Cl)cc23)[C@@H](C)C1 (single isomer, unassigned) [Example 54-17-1]",413 nM,–,–
"C=CC(=O)N1CCN(c2nc(=O)n(-c3c(C)cnn3C(C)C)c3nc(-c4c(O)cccc4F)c(Cl)cc23)[C@@H](C)C1 (single isomer, unassigned) [Example 54-71-2]",179 nM,–,–
"C=CC(=O)N1CCN(c2nc(=O)n(-c3c(C)cccc3CC)c3nc(-c4c(O)cccc4F)c(Cl)cc23)[C@@H](C)C1 (single isomer, unassigned) [Example 55-8-1]",45 nM,–,–
"C=CC(=O)N1CCN(c2nc(=O)n(-c3c(C)cccc3CC)c3nc(-c4c(O)cccc4F)c(Cl)cc23)[C@@H](C)C1 (single isomer, unassigned) [Example 55-8-2]",160 nM,–,–
"C=CC(=O)N1CCN(c2nc(=O)n(-c3c(C)ncnc3C(C)C)c3nc(-c4c(O)cccc4F)c(Cl)cc23)[C@@H](C)C1 (single isomer, unassigned) [Example 55-14-1]",1090 nM,–,–
"C=CC(=O)N1CCN(c2nc(=O)n(-c3c(C)cccc3C(C)C)c3nc(-c4c(O)cccc4F)c(F)cc23)[C@@H](C)C1 (single isomer, unassigned) [Example 58-18-2]",715 nM,–,–
"C=CC(=O)N1CCN(c2nc(=O)n(-c3ccccc3C(C)C)c3nc(-c4c(O)cccc4F)c(Cl)cc23)CC1 (single isomer, unassigned) [Example 60-24-2, (P)-6-chloro-7-(2-fluoro-6-hydroxyphenyl)-1-(2-(2-propanyl)phenyl)-4-(4-(2-propenoyl)-1-piperazinyl)pyrido[2,3-d]pyrimidin-2(1H)-one]",704 nM,–,"IC50 ([1]; read-out: p-ERK IC50 (4 h; MIA PaCa-2), 4 h compound treatment): 976 nM"
"C=CC(=O)N1CCN(c2nc(=O)n(-c3ccccc3C(C)C)c3cc(-c4ccccc4F)c(Cl)cc23)CC1 (single isomer, unassigned) [Example 88-2, 6-chloro-7-(2 fluorophenyl)-1-(2-(2-propanyl)phenyl)-4-(4-(2-propenoyl)-1-piperazinyl)-2(1H)-quinazolinone]",1650 nM,–,–
"C=CC(=O)N1CCN(c2nc(=O)n(-c3c(C(C)C)ccnc3C)c3nc(-c4c(O)cccc4F)c(Cl)cc23)[C@@H](C)C1 [Example 54-17, 6-chloro-7-(2-fluoro-6-hydroxy-phenyl)-1-(2-methyl-4-(2-propanyl)-3-pyridinyl)-4-((2S)-2-methyl-4-(2-propenoyl)-1-piperazinyl) pyrido[2,3-d]pyrimidin-2(1H)-one]",–,–,"IC50 [1, 4]: 504 nM"
"C=CC(=O)N1CCN(c2nc(=O)n(-c3ccccc3C(C)C)c3nc(-c4ccccc4O)c(Cl)cc23)[C@@H](C)C1 [Example 54-43, 6-chloro-7-(2-hydroxyphenyl)-4-((2S)-2-methyl-4-(2-propenoyl)-1-piperazinyl)-1-(2-(2-propanyl)phenyl)pyrido [2,3-d]pyrimidin-2(1H)-one]",–,–,"IC50 [1, 4]: 251 nM"
"C=CC(=O)N1CCN(c2nc(=O)[nH]c3nc(-c4c(O)cccc4F)c(Cl)cc23)[C@@H](C)C1 [Example 119, 6-Chloro-7-(2-fluoro-6-hydroxyphenyl)-4-((2S)-2-methyl-4-(2-propenoyl)-1-piperazinyl)pyrido[2,3-d]pyrimidin-2(1H)-one]",–,10.8 | nda μM,–
"C=CC(=O)N1CCN(c2cc(=O)n(CC(C)(C)C)c3nc(-c4ccccc4F)ccc23)[C@@H](C)C1 [Example 120, 1-(2,2-Dimethylpropyl)-7-(2-fluorophenyl)-4-((2S)-2-methyl-4-(2-propenoyl)-1-piperazinyl)-1,8-naphthyridin-2(1H)-one]",–,71.1 | nda μM,–
"C=CC(=O)N1CCN(c2cc(=O)n(CC(C)(C)C)c3nc(-c4ccccc4F)c(Cl)cc23)[C@@H](C)C1 [Example 121, 6-chloro-1-(2,2-dimethylpropyl)-7-(2-fluorophenyl)-4-((2S)-2-methyl-4-(2-propenoyl)-1-piperazinyl)-1,8-naphthyridin-2(1H)-one]",–,14.2 | nda μM,–
"C=CC(=O)N1CCN(c2cc(=O)n(CC(C)(C)C)c3nc(-c4ccccc4F)c(Cl)cc23)CC1 [Example 122, 6-Chloro-1-(2,2-dimethylpropyl)-7-(2-fluorophenyl)-4-(4-(2-propenoyl)-1-piperazinyl)-1,8-naphthyridin-2(1H)-one]",–,5.29 | nda μM,–
"C=CC(=O)N1CCN(c2cc(=O)n(CC(C)(C)C)c3nc(-c4ccccc4F)ccc23)CC1 [Example 123, 1-(2,2-Dimethylpropyl)-7-(2-fluorophenyl)-4-(4-(2-propenoyl)-1-piperazinyl)-1,8-naphthyridin-2(1H)-one]",–,38.6 | nda μM,–
"C=CC(=O)N1CC=C(c2cc(=O)n(CC(C)(C)C)c3nc(-c4ccccc4F)c(Cl)cc23)CC1 [Example 124, 6-Chloro-1-(2,2-dimethylpropyl)-7-(2-fluorophenyl)-4-(1-(2-propenoyl)-1,2,3,6-tetrahydro-4-pyridinyl)-1,8-naphthyridin-2(1H)-one]",–,6.22 | nda μM,–
"C=CC(=O)N1CCC(c2cc(=O)n(CC(C)(C)C)c3nc(-c4ccccc4F)c(Cl)cc23)CC1 [Example 125, 6-Chloro-1-(2,2-dimethylpropyl)-7-(2-fluorophenyl)-4-(1-(2-propenoyl)-4-piperidinyl)-1,8-naphthyridin-2(1H)-one]",–,35.4 | nda μM,–
"C=CC(=O)N1CCN(c2cc(=O)n(-c3ccccc3C(C)C)c3nc(-c4ccccc4F)ccc23)[C@@H](C)C1 [Example 127, 7-(2-fluorophenyl)-4-((2S)-2-methyl-4-(2-propenoyl)-1-piperazinyl)-1-(2-(2-propanyl)phenyl)-1,8-naphthyridin-2(1H)-one]",–,27.2 | nda μM,–
"C=CC(=O)N1CCN(c2nc(=O)n(-c3ccccc3C(F)(F)F)c3cc(Br)c(Cl)cc23)CC1 [Example 128, 7-Bromo-6-chloro-4-(4-(2-propenoyl)-1-piperazinyl)-1-(2-(trifluoromethyl)phenyl)-2(1H)-quinazolinone]",–,–,Coupled exchange IC50 (2 h) ([2]; 2 h compound pre-incubation): nda | 18 μM
"C=CC(=O)N1CCN(c2nc(OC)c(-c3ccccc3C)c3nc(-c4ccccc4F)c(Cl)cc23)[C@@H](C)C1 [Example 134, 1-((3S)-4-(3-Chloro-2-(2-fluorophenyl)-7-methoxy-8-(2-methylphenyl)-1,6-naphthyridin-5-yl)-3-methyl-1-piperazinyl)-2-propen-1-one]",–,1.95 | nda μM,–
"C=CC(=O)N1CCN(c2nc(=O)n(-c3c(C)ccnc3C(C)C)c3nc(-c4ccccc4F)c(C)nc23)[C@@H](C)C1 [Example 143, 7-(2-Fluorophenyl)-6-methyl-1-(4-methyl-2-(2-propanyl)-3-pyridinyl)-4-((2S)-2-methyl-4-(2-propenoyl)-1-piperazinyl)-2(1H)-pteridinone]",–,0.497 | nda μM,–
"C=CC(=O)N1CCN(c2nc(C)c(C(=O)N(C(C)C)C(C)C)c3nc(-c4ccccc4F)c(Cl)cc23)CC1 [Example 144, 3-Chloro-2-(2-fluorophenyl)-7-methyl-N,N-di(2-propanyl)-5-(4-(2-propenoyl)-1-piperazinyl)-1,6-naphthyridine-8-carboxamide]",–,8.31 | nda μM,–
"C=CC(=O)N1CCN(c2nc(C#N)c(-c3ccccc3C(C)C)c3nc(-c4ccccc4F)c(Cl)cc23)CC1 [Example 146, 3-Chloro-2-(2-fluorophenyl)-8-(2-(2-propanyl)phenyl)-5-(4-(2-propenoyl)-1-piperazinyl)-1,6-naphthyridine-7-carbonitrile]",–,38.7 | nda μM,–
"C=CC(=O)N1CCN(c2nc(C(N)=O)c(-c3ccccc3C(C)C)c3nc(-c4ccccc4F)c(Cl)cc23)CC1 [Example 147, 3-Chloro-2-(2-fluorophenyl)-8-(2-(2-propanyl)phenyl)-5-(4-(2-propenoyl)-1-piperazinyl)-1,6-naphthyridine-7-carboxamide]",–,13.6 | nda μM,–
"C=CC(=O)N1CCN(c2nc(CO)c(C(=O)N3[C@@H](C)CC[C@@H]3C)c3nc(-c4ccccc4F)c(Cl)cc23)CC1 [Example 149, 1-(4-(3-Chloro-8-(((2S,5S)-2,5-dimethyl-1-pyrrolidinyl)carbonyl)-2-(2-fluorophenyl)-7-(hydroxymethyl)-1,6-naphthyridin-5-yl)-1-piperazinyl)-2-propen-1-one]",–,20.6 | nda μM,–
"Mixture of (M)-6-chloro-7-((2R)-2-methyl-1-piperidinyl)-4-((2S)-2-methyl-4-(2-propenoyl)-1-piperazinyl)-1-(2-(2-propanyl)phenyl)pyrido[2,3-d]pyrimidin-2(1H)-one and (M)-6-chloro-7-((2S)-2-methyl-1-piperidinyl)-4-((2S)-2-methyl-4-(2-propenoyl)-1-piperazinyl)-1-(2-(2-propanyl)phenyl)pyrido[2,3-d]pyrimidin-2(1H)-one [Example 115]",–,–,"IC50 ([2]; read-out: Coupled exchange IC50 (5 min), 5 min compound pre-incubation): 2920 nM"
